Test results reported in ChEMBL document CHEMBL5360532, “Current scenario of quinolone hybrids with potential antibacterial activity against ESKAPE pathogens” (Eur J Med Chem, 2023).
≈ marks a conversion by molar mass, not a printed value. Values belong to the molecule of their own block, whether it stands above or below them.

Columns and labels:
Assay type in all cases: functional
[1] = tested on: Staphylococcus aureus; experiment: Antibacterial activity against methicillin resistant Staphylococcus aureus ATCC 33591 assessed as bacterial growth inhibition measured after 16 to 18 hrs by serial dilution method; conditions: time 16-18 hrs
[2] = tested on: Staphylococcus aureus; experiment: Antibacterial activity against fluoroquinolone/methicillin resistant Staphylococcus aureus clinical isolate 19-27 assessed as bacterial growth inhibition measured after 16 to 18 hrs by serial dilution method; conditions: time 16-18 hrs
[3] = tested on: Staphylococcus aureus; experiment: Antibacterial activity against clinical isolate aminoglycosides/tetracycline/methicillin resistant Staphylococcus aureus NRS 1 assessed as bacterial growth inhibition measured after 16 to 18 hrs by serial dilution method; conditions: time 16-18 hrs
[4] = tested on: Staphylococcus aureus; experiment: Antibacterial activity against fluoroquinolone/methicillin resistant Staphylococcus aureus clinical isolate 19-26 assessed as bacterial growth inhibition measured after 16 to 18 hrs by serial dilution method; conditions: time 16-18 hrs
[5] = tested on: Staphylococcus aureus; experiment: Antibacterial activity against fluoroquinolone/methicillin resistant Staphylococcus aureus clinical isolate 19-25 assessed as bacterial growth inhibition measured after 16 to 18 hrs by serial dilution method; conditions: time 16-18 hrs
[6] = tested on: Staphylococcus aureus; experiment: Antibacterial activity against vancomycin-intermediate methicillin resistant Staphylococcus aureus ATCC 700699 assessed as bacterial growth inhibition measured after 16 to 18 hrs by serial dilution method; conditions: time 16-18 hrs
[7] = tested on: Staphylococcus aureus; experiment: Antibacterial activity against Staphylococcus aureus Newman assessed as bacterial growth inhibition measured after 16 to 18 hrs by serial dilution method; conditions: time 16-18 hrs
[8] = tested on: Staphylococcus aureus; experiment: Antibacterial activity against clinical isolate oxacillin/tetracycline/methicillin resistant Staphylococcus aureus NRS 100 assessed as bacterial growth inhibition measured after 16 to 18 hrs by serial dilution method; conditions: time 16-18 hrs
[9] = tested on: Staphylococcus aureus; experiment: Antibacterial activity against vancomycin-intermediate methicillin resistant Staphylococcus aureus ATCC 700788 assessed as bacterial growth inhibition measured after 16 to 18 hrs by serial dilution method; conditions: time 16-18 hrs
[10] = tested on: Staphylococcus aureus; experiment: Antibacterial activity against clinical isolate linezolid/methicillin resistant Staphylococcus aureus NRS 271 assessed as bacterial growth inhibition measured after 16 to 18 hrs by serial dilution method; conditions: time 16-18 hrs
[11] = tested on: Staphylococcus aureus; experiment: Antibacterial activity against clinical isolate erythromycin/methicillin resistant Staphylococcus aureus NRS 70 assessed as bacterial growth inhibition measured after 16 to 18 hrs by serial dilution method; conditions: time 16-18 hrs
[12] = tested on: Staphylococcus aureus; experiment: Antibacterial activity against clinical isolate gentamycin/methicillin resistant Staphylococcus aureus NRS 108 assessed as bacterial growth inhibition measured after 16 to 18 hrs by serial dilution method; conditions: time 16-18 hrs
[13] = tested on: Staphylococcus aureus; experiment: Antibacterial activity against methicillin resistant Staphylococcus aureus ATCC 43300 assessed as bacterial growth inhibition measured after 16 to 18 hrs by serial dilution method; conditions: time 16-18 hrs
[14] = tested on: Escherichia coli; experiment: Antibacterial activity against Escherichia coli assessed as bacterial growth inhibition by serial dilution method
[15] = tested on: Acinetobacter baumannii; experiment: Antibacterial activity against Acinetobacter baumannii assessed as bacterial growth inhibition by serial dilution method
[16] = tested on: Staphylococcus aureus; experiment: Antibacterial activity against Staphylococcus aureus assessed as bacterial growth inhibition by serial dilution method
[17] = tested on: Pseudomonas aeruginosa; experiment: Antibacterial activity against Pseudomonas aeruginosa assessed as bacterial growth inhibition by serial dilution method
[18] = tested on: Klebsiella pneumoniae; experiment: Antibacterial activity against Klebsiella pneumoniae assessed as bacterial growth inhibition by serial dilution method
[19] = tested on: Escherichia coli; experiment: Antibacterial activity against Escherichia coli assessed as bacterial growth inhibition measured after 24 hrs by serial dilution method
[20] = tested on: Staphylococcus aureus; experiment: Antibacterial activity against methicillin resistant Staphylococcus aureus assessed as bacterial growth inhibition measured after 24 hrs by serial dilution method
[21] = tested on: Candida albicans; experiment: Antifungal activity against Candida albicans assessed as fungal growth inhibition measured after 24 hrs by agar cup diffusion assay
[22] = tested on: Aspergillus niger; experiment: Antifungal activity against Aspergillus niger assessed as fungal growth inhibition by agar cup diffusion assay
[23] = tested on: Aspergillus fumigatus; experiment: Antifungal activity against Aspergillus fumigatus assessed as fungal growth inhibition by agar cup diffusion assay
[24] = tested on: Escherichia coli; experiment: Antibacterial activity against Escherichia coli ATCC 8739 assessed as bacterial growth inhibition by agar dilution method
[25] = tested on: Bacillus subtilis; experiment: Antibacterial activity against Bacillus subtilis PTCC 1023 assessed as bacterial growth inhibition by agar dilution method
[26] = tested on: Klebsiella pneumoniae; experiment: Antibacterial activity against Klebsiella pneumoniae ATCC 10031 assessed as bacterial growth inhibition by agar dilution method
[27] = tested on: Enterobacter cloacae; experiment: Antibacterial activity against Enterobacter cloacae PTCC 1003 assessed as bacterial growth inhibition by agar dilution method
[28] = tested on: Staphylococcus epidermidis; experiment: Antibacterial activity against Staphylococcus epidermidis ATCC 12228 assessed as bacterial growth inhibition by agar dilution method
[29] = tested on: Staphylococcus aureus; experiment: Antibacterial activity against Staphylococcus aureus ATCC 6538p assessed as bacterial growth inhibition by agar dilution method

Compound: CN[C@H](CC(C)C)C(=O)N[C@H]1C(=O)N[C@@H](CC(N)=O)C(=O)N[C@H]2C(=O)N[C@H]3C(=O)N[C@H](C(=O)N[C@H](C(=O)O)c4cc(O)cc(O)c4-c4cc3ccc4O)[C@H](O)c3ccc(c(Cl)c3)Oc3cc2cc(c3O[C@@H]2O[C@H](CO)[C@@H](O)[C@H](O)[C@H]2O[C@H]2C[C@](C)(N)[C@H](O)[C@H](C)O2)Oc2ccc(cc2Cl)[C@H]1O [VANCOMYCIN]
MIC [1]: 0.78 µg/mL (≈ 0.538 µM)
MIC [2]: 0.78 µg/mL (≈ 0.538 µM)
MIC [3]: 0.78 µg/mL (≈ 0.538 µM)
MIC [4]: 0.78 µg/mL (≈ 0.538 µM)
MIC [5]: 0.78 µg/mL (≈ 0.538 µM)
MIC [6]: 0.78 µg/mL (≈ 0.538 µM)
MIC [7]: 0.78 µg/mL (≈ 0.538 µM)
MIC [8]: 0.78 µg/mL (≈ 0.538 µM)
MIC [9]: 0.78 µg/mL (≈ 0.538 µM)
MIC [10]: 0.78 µg/mL (≈ 0.538 µM)
MIC [11]: 0.78 µg/mL (≈ 0.538 µM)
MIC [12]: 0.78 µg/mL (≈ 0.538 µM)
MIC [13]: 0.78 µg/mL (≈ 0.538 µM)

MIC [14]: 0.039 µg/mL (≈ 0.0755 µM)
MIC [15]: 0.039 µg/mL (≈ 0.0755 µM)
MIC [16]: 0.039 µg/mL (≈ 0.0755 µM)
MIC [17]: 0.039 µg/mL (≈ 0.0755 µM)
MIC [18]: 0.039 µg/mL (≈ 0.0755 µM)
Compound: Cc1ccc(/N=C(\N2CCN(c3cc4c(cc3F)c(=O)c(C(=O)O)cn4C3CC3)CC2)C(F)(F)F)cc1

Compound: COc1c(N2CCCC(N(C)C(=O)c3cccnc3)C2)c(F)cc2c(=O)c(C(=O)O)cn(C3CC3)c12 (centres undefined)
MIC [19]: 0.078 µg/mL (≈ 0.158 µM)
MIC [20]: 0.078 µg/mL (≈ 0.158 µM)

Compound: CC(=O)N1CCN(c2ccc(OCC3COC(Cn4ccnc4)(c4ccc(Cl)cc4Cl)O3)cc2)CC1 (centres undefined) [KETOCONAZOLE]
MIC [21]: 2.6 µg/mL (≈ 4.89 µM)
MIC [22]: 10.8 µg/mL (≈ 20.3 µM)
MIC [23]: 11.4 µg/mL (≈ 21.5 µM)

MIC [24]: 0.015 µg/mL (≈ 0.0259 µM)
MIC [25]: 0.015 µg/mL (≈ 0.0259 µM)
MIC [26]: 0.015 µg/mL (≈ 0.0259 µM)
MIC [27]: 0.015 µg/mL (≈ 0.0259 µM)
MIC [28]: 0.015 µg/mL (≈ 0.0259 µM)
MIC [29]: 0.015 µg/mL (≈ 0.0259 µM)
Compound: COc1cc(OC)nc(/N=N/N2CCN(c3cc4c(cc3F)c(=O)c(C(=O)C(C(C)=O)C(C)=O)cn4C3CC3)CC2)n1
